# Measured values reported in paper PMC12040169 (PLOS Biology, 2025).
# Experiment: in vitro
# Conditions: human, hela cells, % viability
row,SMILES,"viability at 28.5 h, 10 µM [%]"
1,O=C(NCc1ccccn1)c1cc2cc(Cl)ccc2[nH]1 [CBK107265],88.2
2,CN1CCN(C(=O)c2cc(C(C)(C)C)nn2Cc2ccc(Cl)cc2Cl)CC1 [CBK107285],109
3,CN(C)CCCNC(=O)c1cc(C(C)(C)C)nn1Cc1ccc(Cl)cc1Cl [CBK107286],102
4,CC(C)(C)c1cc(C(=O)NCc2ccccn2)n(Cc2ccc(Cl)cc2Cl)n1 [CBK107288],101
5,CC(C)(N)CNC(=O)c1cc(C(C)(C)C)nn1Cc1ccc(Cl)cc1Cl [CBK107296],95.6
6,CN(C)CCNC(=O)Cc1csc(-c2ccc(Cl)cc2)n1 [CBK107299],96.2
7,CN1CCN(C(=O)Cc2csc(-c3ccc(Cl)cc3)n2)CC1 [CBK107301],104
8,O=C(Cc1csc(-c2ccc(Cl)cc2)n1)NCCN1CCCC1 [CBK107306],90
9,O=C(Cc1csc(-c2ccc(Cl)cc2)n1)N1CCN(c2ccccn2)CC1 [CBK107310],97
10,CN(C)CCN(C)C(=O)c1cc2cc(OC(F)(F)F)ccc2[nH]1 [CBK107316],91.5
11,COc1ccc(Nc2cc(Cl)ccc2C(=O)N2CCN(c3ncccn3)CC2)cn1 [CBK107334],89.9
12,O=C(Nc1cccnc1)c1cnc2cc(Cl)ccc2c1O [CBK107353],82.6
13,CN(C)CC(C)(C)CNC(=O)c1cnc2cc(Cl)ccc2c1O [CBK107357],97
14,CC(C)(N)CNC(=O)c1cnc2cc(Cl)ccc2c1O [CBK107360],101
15,NCCNC(=O)c1cc2cc(OC(F)(F)F)ccc2[nH]1 [CBK107368],118
16,O=C(Nc1ccncc1)c1cc2cc(OC(F)(F)F)ccc2[nH]1 [CBK107369],89.3
17,CCCc1c(C(=O)N2CCN(C)CC2)cnn1-c1cc(Cl)cc(Cl)c1 [CBK107375],103
18,CCCc1c(C(=O)NCC(C)(C)CN(C)C)cnn1-c1cc(Cl)cc(Cl)c1 [CBK107381],94.3
19,Cc1c(C(=O)Nc2ccncc2)nnn1-c1cccc(C(F)(F)F)c1 [CBK107390],102
20,Cc1c(C(=O)NCc2ccncc2)nnn1-c1cccc(C(F)(F)F)c1 [CBK107396],88.7
21,CN(C)CC(C)(C)CNC(=O)c1cc(C(=O)c2ccc(Cl)cc2Cl)c[nH]1 [CBK107416],94.8
22,O=C(c1c[nH]c(C(=O)N2CCN(c3ncccn3)CC2)c1)c1ccc(Cl)cc1Cl [CBK107418],89.4

row,SMILES,"viability at 28.5 h, 10 µM [%]"
1,CN1CCN(NC(=O)c2cc(C(=O)c3ccc(Cl)cc3Cl)c[nH]2)CC1 [CBK107420],91.4
2,CN1CCN(C(=O)c2cnc3cc(C(F)(F)F)ccc3c2O)CC1 [CBK107423],105
3,CN(C)CC(C)(C)CNC(=O)c1cnc2cc(C(F)(F)F)ccc2c1O [CBK107427],97.9
4,CC(C)(CN1CCOCC1)NC(=O)c1cnc2cc(C(F)(F)F)ccc2c1O [CBK107429],102
5,COc1ccc(Nc2cc(Cl)ccc2C(=O)Nc2ccncc2)cn1 [CBK107434],96.3
6,O=C(Nc1ccncc1)c1cnn(-c2ccc(Cl)cc2)c1C(F)(F)F [CBK107441],95.5
7,O=C(Nc1ccc(OC(F)F)cc1)Nc1c(Br)cnc2cccnc12 [CBK107632],87.8
8,O=C(Nc1ccc2oc(-c3ccccc3)nc2c1)C1CCCO1 (stereo not drawn) [CBK107724],84.1
9,CCOc1cc(OCC)nc(Oc2ccc(C(=O)OC)cc2)n1 [CBK107733],87.2
10,Fc1ccc(OCCCN2CCC3(CC2)OCCc2c3[nH]c3ccccc23)cc1 [CBK107736],77
11,CNC(=O)CSc1nccnc1N1CCCC1 [CBK107748],93.6
12,Cc1ccc(Nc2cncc(-c3ccc(O)cc3)n2)cc1Cl [CBK107802],99.9
13,Oc1ccc(-c2cncc(Nc3ccc(Br)c(Cl)c3)n2)cc1 [CBK107806],89.4
14,CCC(=O)c1c(CC)n[nH]c1-c1c(Cl)cccc1Cl [CBK107819],96.1
15,COc1ccccc1NC(=O)c1[nH]nc(O)c1Cc1c(Cl)cccc1Cl [CBK107846],90.2
16,CC(C)Nc1nc2cc(Cl)c(Cl)cc2nc1SCCC(=O)O [CBK107860],96.1
17,O=C(O)CCSc1nccc(C(F)(F)F)n1 [CBK107864],87.5
18,O=C(O)CCSc1nc2ccccc2nc1C(F)(F)F [CBK107866],93.7
19,CC1(OCCCO)SC(NC2CCCCCC2)=NC1=O (stereo not drawn) [CBK107927],91.5
20,Oc1n[nH]c(-c2ccccc2Cl)c1Cc1c(Cl)cccc1Cl [CBK107935],84.1
21,Cc1ccc(C)c2[nH]c(=O)c(CN(CCN3CCOCC3)Cc3nnnn3C3CCCCC3)cc12 [CBK108116],85.3
22,COc1cc2cc(CN(Cc3cccnc3)C(=O)Nc3ccc(F)cc3)c(=O)[nH]c2cc1OC [CBK108193],93.3

row,SMILES,"viability at 28.5 h, 10 µM [%]"
1,CCc1cc2cc3c(cc2nc1SCC(=O)Nc1nc(C)c(C)s1)OCO3 [CBK108548],94.8
2,Cc1cccc2cc(CN(Cc3cccnc3)C(=O)Nc3ccccc3Cl)c(=O)[nH]c12 [CBK108869],97.9
3,Cc1ccc2cc(CN(Cc3ccc4c(c3)OCO4)Cc3nnnn3Cc3ccco3)c(=O)[nH]c2c1 [CBK108949],93.9
4,Cc1cc2cc(CN(CC3CCCO3)C(=O)C3CC3)c(Cl)nc2cc1C (stereo not drawn) [CBK109881],101
5,O=C1c2ccccc2CN1c1ccc(Cl)cc1Cl [CBK109908],95
6,COc1ccc2c(c1OC)C(=O)N1c3ccccc3COC21 (stereo not drawn) [CBK109960],103
7,O=C(O)c1cc(S(=O)(=O)Nc2ccccc2)ccc1O [CBK109969],83.2
8,CC(=O)OC(c1ccccc1)c1nc2ccccc2[nH]1 (stereo not drawn) [CBK110141],97.1
9,O=C(O)CSc1cccc([N+](=O)[O-])c1 [CBK110160],101
10,O=C(Nc1ccccc1Cl)C1CCCN1S(=O)(=O)c1ccc(F)cc1 (stereo not drawn) [CBK110161],89.1
11,Cc1ccc(NC(=O)C2CCCN2S(=O)(=O)c2ccc(F)cc2)cc1F (stereo not drawn) [CBK110164],91.6
12,CNS(=O)(=O)c1cc(C(=O)O)c(OC)cc1OC [CBK110325],84.6
13,COC(=O)c1cc(C(=O)CSc2nc(N)cc(O)n2)ccc1O [CBK110407],92.2
14,COc1ccc(OC)c(C(=O)c2coc3ccc(OCC(=O)O)cc23)c1 [CBK111288],91.8
15,O=C1/C(=C/c2c(NCCCn3ccnc3)nc3ccccn3c2=O)SC(=S)N1CC1CCCO1 (stereo not drawn) [CBK111310],99.3
16,CC1CCN(Cc2c(O)ccc3occ(C(=O)c4ccccc4)c23)CC1 [CBK111319],89.8
17,O=C(O)CSc1ccccc1[N+](=O)[O-] [CBK111324],86.8
18,CCS(=O)(=O)Nc1cc(C(F)(F)F)ccc1Cl [CBK111339],111
19,CCS(=O)(=O)Nc1cc([N+](=O)[O-])ccc1OC [CBK111343],97
20,CCS(=O)(=O)Nc1cc(Cl)ccc1C [CBK111350],79.1
21,Cc1ccc(NC(C(N)=O)c2c(C)[nH]c(=O)[nH]c2=O)cc1 (stereo not drawn) [CBK111355],98.4
22,Cc1ccc([N+](=O)[O-])cc1NS(=O)(=O)Cc1ccc(Cl)cc1 [CBK111359],71.8

row,SMILES,"viability at 28.5 h, 10 µM [%]"
1,CN1CCN(Cc2c(O)ccc3occ(C(=O)c4ccccc4)c23)CC1 [CBK111438],98.2
2,COc1ccc(SCC(=O)O)cc1 [CBK111455],93.7
3,CCc1nc2ccccc2n1CC(=O)O [CBK111477],101
4,O=C(O)CCn1c(C2CCCCC2)nc2ccccc21 [CBK111480],86.2
5,CC(OC(=O)C1CCCCC1)c1nc2ccccc2[nH]1 (stereo not drawn) [CBK111483],107
6,Cc1[nH]c(=O)[nH]c(=O)c1Cc1cccc2ccccc12 [CBK111494],92.8
7,COCCn1nnnc1C(c1cc2c(C)ccc(C)c2[nH]c1=O)N1CCN(C(=O)c2ccco2)CC1 (stereo not drawn) [CBK111563],98.6
8,O=C(NCc1cccnc1)c1ccc(-c2cccc(Cl)c2Cl)o1 [CBK112211],102
9,CCCc1[nH]n(CCc2ccccc2)c(=O)c1Cc1c(Cl)cccc1Cl [CBK112499],99.8
10,Nc1nc2ccccc2cc1-c1cccs1 [CBK112549],100
11,O=C(Nc1ccc2c(c1)C1C=CCC1C(C(=O)O)N2)c1ccc(Cl)cc1Cl (stereo not drawn) [CBK112584],105
12,CCOC(=O)C1N(C)C(=O)C(Cc2c(Cl)cccc2Cl)=C(C)N1C (stereo not drawn) [CBK112643],94.4
13,COCCN1CCOC2(CCN(C(=O)c3ccc(C)cc3)CC2)C1c1ccccc1OC (stereo not drawn) [CBK112657C],100
14,CSc1ccc(-n2ncc(-c3cccc(C(F)(F)F)c3)n2)cc1 [CBK112666],93.6
15,N#Cc1ccc(-n2ncc(-c3cccc(C(F)(F)F)c3)n2)cc1 [CBK112675],90.9
16,Oc1ccc(-n2ncc(-c3cccc(C(F)(F)F)c3)n2)cc1 [CBK112677],99.9
17,COc1ccc(-n2ncc(-c3cccc(C(F)(F)F)c3)n2)cn1 [CBK112678],95.8
18,OCc1ccc(-n2ncc(-c3ccc(C(F)(F)F)cc3)n2)cc1 [CBK112696],94.6
19,CS(=O)(=O)c1ccc(-n2ncc(-c3ccc(C(F)(F)F)cc3)n2)cc1 [CBK112698],90
20,O=C(O)c1cccc(-n2ncc(-c3ccccc3C(F)(F)F)n2)c1 [CBK112721],98.1
21,CSc1ccc(-n2ncc(-c3ccc(F)cc3F)n2)cc1 [CBK112728],91.3
22,OCc1ccc(-n2ncc(-c3ccc(F)cc3F)n2)cc1 [CBK112731],97.3

# Same assay, conditions: human, hela cells, % viability, bulk resorufin, single well
row,SMILES,"viability at 28.5 h, 10 µM [%]"
1,COc1ccc(CCNC(=O)c2cccc(-c3ccc4c(c3)COC3(CCNCC3)O4)c2)cc1OC [CBK110024],116
2,COc1cc(CNC(=O)c2cccc(-c3ccc4c(c3)COC3(CCNCC3)O4)c2)cc(OC)c1OC [CBK110087],87.8
